In patent publication US20240197635A1, “DISSOCIATING POLYMER MATRIX COMPOSITIONS OF FULVESTRANT AND METHODS OF THEIR MAKING AND USE” (VeraMorph LLC, priority 2021, published 2024):

Assay: In vitro dissolution of fulvestrant-loaded DPODs in simulated gastric fluid
Settings: aqueous dissolution media
Description: The exact time of release can vary from 5 minutes to 120 minutes, with the capability to dissolve in less than 60 minutes and in less than 30 minutes and in less than 20 minutes depending on the exact pH. These parameters can be controlled by modifying the extent of drug loading and the composition of the DPOD.

C[C@]12CC[C@@H]3c4ccc(O)cc4C[C@@H](CCCCCCCCC[S+]([O-])CCCC(F)(F)C(F)(F)F)[C@H]3[C@@H]1CC[C@@H]2O (stereo partly drawn) [fulvestrant, 7α-[9-[(4,4,5,5,5-Pentafluoropentyl)-sulfinyl]nonyl]estra-1,3,5(10)-triene-3,17β-diol]
saturation concentration of fulvestrant: 2 µg/mL
